For one molecule, IC50 results are on record in PMC8880061, “Synthesis of (+)-(R)-Tiruchanduramine” (Molecules, 2022).

The assay has as its target almond β-glucosidase. Nature of the assay: glycosidase inhibition assay with p-nitrophenyl substrate, commercial (Sigma) enzyme. The class given is biochemical, Prunus dulcis.

The molecule `NC1=NC[C@@H](CCNC(=O)c2cc3c(cn2)[nH]c2ccccc23)N1` [compound 1, (+)-(R)-Tiruchanduramine] showed an IC50 of 1000 µM. This lies in the millimolar range.
